Source: US10745401B2, “Condensed lactam derivative” (Sumitomo Dainippon Pharma Co., Ltd., priority 2018, dated 2020)
pEC50, pIC50, pKi: −log10 of the molar value.

Columns and labels:
[1] = target: hERG channel (Homo sapiens (Human), UniProt Q12809); experiment: Test 6-1: inhibitory activity for hERG channel (auto patch clamp, Qpatch); type: cell-based; settings: whole cell auto patch clamp, hERG-CHO cells; read-out: hERG inhibition IC50
Summary of the method: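 Whole-cell patch clamp on an automated system using CHO cells stably expressing human hERG (IKr); 15 s pulse interval. Four increasing compound concentrations applied cumulatively; mean peak tail current from last 3 stimulations per concentration used. IC50 from inhibition versus pre-compound current, fitted by Hill equation.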

[2] = target: T1, human 5-HT1A receptor (Homo sapiens (Human), UniProt P08908); experiment: Test 2: agonist activity for human 5-HT1A receptor ([35S]GTPγS binding); type: biochemical; settings: for Emax at 10 µM: agonist activity in the presence of 10 μM of compound, relative to 100 μmol/L 5-HT; for pEC50: [35S]GTPγS binding, concentration at which half the activity of Emax was obtained
Summary of the method: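 Membranes from CHO cells expressing human 5-HT1A incubated with compound, GDP-containing buffer and [35S]GTPγS for 60 min at room temperature. Bound radioactivity collected by glass-fibre filtration and counted by liquid scintillation; agonist activity derived from a formula.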

[3] = target: human 5-HT2A receptor (Homo sapiens (Human), UniProt P28223); experiment: Test 3: antagonist activity for human 5-HT2A receptor (aequorin luminescence, CHO-K1 cells); type: cell-based; settings: CHO-K1 cells, 1 nmol/L 5-HT
Protocol: Test 3: Evaluation of Antagonist Activity for Human 5-HT2A Receptor
Aequorin, Gα16 protein, and each receptor were transiently expressed in CHO-K1 cells (Chinese hamster ovary). […] Each compound dissolved in DMSO was added thereto, and changes in luminescence were measured by FDSS/μCELL functional drug screening system (Hamamatsu Photonics K.K.). Antagonist activity was calculated from the following formula. Antagonist activity (%)=100×{(Luminescence of well in the presence of 1 nmol/L 5-HT−Luminescence of well containing solvent)−(Luminescence of well in the presence of test compound and 1 nmol/L 5-HT−Luminescence of well containing solvent)}/(Luminescence of well in the presence of 1 nmol/L 5-HT−Luminescence of well containing solvent)

[4] = Test 4: metabolic stability test in human hepatic microsome; type: in vitro ADME; settings: 0.1 mg/mL microsome, 0.1 μmol/L compound, 37° C., 30 minutes
Summary of the method: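 Compound at 0.1 μmol/L incubated 30 min at 37° C with human liver microsomes (0.1 mg/mL) and NADPH (3.2 mmol/L) in 25 mmol/L phosphate buffer, pH 7.4. Residual compound measured by LC-MS; stability (mL/min/mg protein) = −LN(residual ratio)/30/0.1.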

[5] = target: T1, human 5-HT1A receptor; experiment: Test 1: binding activity for human 5-HT1A receptor ([3H]8-OH-DPAT, CHO cell membrane fraction)
Summary of the method: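 Membranes incubated with [3H]8-OH-DPAT and compound for 60 min at room temperature, then filtered on polyethylenimine-coated glass-fibre plates and counted by liquid scintillation. IC50 from Hill analysis; Ki = IC50/(1+S/Kd), Kd from saturation binding on the same membranes.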

[6] = target: human D2 receptor (Homo sapiens (Human), UniProt P14416); experiment: Test 1: binding activity for human D2 receptor ([3H]Spiperone, CHO cell membrane fraction); settings: human D2 receptor, [3H]Spiperone
Summary of the method: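 CHO-cell membranes with [3H]ketanserin (5-HT2A) or [3H]spiperone (D2) were incubated with compound for 60 min at room temperature, then filtered, and bound radioactivity was counted by scintillation. Ki = IC50/(1+S/Kd), with ligand Kd from saturation binding on the same membranes.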

Sequence of human D2 receptor (P14416 whole entry): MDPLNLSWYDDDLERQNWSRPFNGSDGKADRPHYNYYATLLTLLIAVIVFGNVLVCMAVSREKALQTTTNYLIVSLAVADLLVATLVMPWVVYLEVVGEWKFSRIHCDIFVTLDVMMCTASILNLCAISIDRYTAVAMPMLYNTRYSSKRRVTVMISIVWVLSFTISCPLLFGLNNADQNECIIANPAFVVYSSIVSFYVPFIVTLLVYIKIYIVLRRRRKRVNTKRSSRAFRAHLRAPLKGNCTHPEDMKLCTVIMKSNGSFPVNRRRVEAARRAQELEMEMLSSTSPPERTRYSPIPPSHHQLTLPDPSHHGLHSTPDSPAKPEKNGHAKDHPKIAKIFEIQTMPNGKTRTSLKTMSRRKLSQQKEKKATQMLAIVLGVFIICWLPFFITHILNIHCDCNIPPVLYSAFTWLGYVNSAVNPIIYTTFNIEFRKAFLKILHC
Sequence of hERG channel (Q12809 whole entry): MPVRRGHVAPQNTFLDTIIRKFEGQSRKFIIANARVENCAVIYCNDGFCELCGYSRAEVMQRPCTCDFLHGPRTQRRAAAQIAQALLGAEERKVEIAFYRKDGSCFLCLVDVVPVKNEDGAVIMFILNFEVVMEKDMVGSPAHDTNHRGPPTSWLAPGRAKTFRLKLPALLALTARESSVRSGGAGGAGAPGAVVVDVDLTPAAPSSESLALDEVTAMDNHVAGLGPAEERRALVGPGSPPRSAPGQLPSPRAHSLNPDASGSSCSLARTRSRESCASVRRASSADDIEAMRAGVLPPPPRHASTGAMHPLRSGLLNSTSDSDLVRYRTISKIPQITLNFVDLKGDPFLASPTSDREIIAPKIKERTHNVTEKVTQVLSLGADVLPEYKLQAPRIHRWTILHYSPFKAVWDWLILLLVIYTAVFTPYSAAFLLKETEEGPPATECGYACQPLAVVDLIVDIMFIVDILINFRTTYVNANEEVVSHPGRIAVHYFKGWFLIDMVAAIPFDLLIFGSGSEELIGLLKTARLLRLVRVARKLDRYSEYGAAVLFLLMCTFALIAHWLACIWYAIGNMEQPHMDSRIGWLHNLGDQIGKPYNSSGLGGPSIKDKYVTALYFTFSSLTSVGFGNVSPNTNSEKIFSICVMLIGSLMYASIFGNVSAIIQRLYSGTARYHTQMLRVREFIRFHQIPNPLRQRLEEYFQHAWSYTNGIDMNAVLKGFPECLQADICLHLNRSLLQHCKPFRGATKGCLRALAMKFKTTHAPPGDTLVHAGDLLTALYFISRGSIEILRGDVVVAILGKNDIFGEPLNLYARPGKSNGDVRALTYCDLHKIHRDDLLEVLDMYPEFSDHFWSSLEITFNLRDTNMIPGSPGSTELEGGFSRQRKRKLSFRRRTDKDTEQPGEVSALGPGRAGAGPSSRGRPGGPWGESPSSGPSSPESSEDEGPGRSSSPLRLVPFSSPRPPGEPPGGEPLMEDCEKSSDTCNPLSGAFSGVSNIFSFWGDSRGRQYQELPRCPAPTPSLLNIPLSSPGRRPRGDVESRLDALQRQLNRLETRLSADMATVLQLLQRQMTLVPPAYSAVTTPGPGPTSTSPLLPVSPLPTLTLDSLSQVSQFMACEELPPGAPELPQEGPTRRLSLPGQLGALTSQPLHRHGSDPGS
T1 sequence (P08908 whole entry): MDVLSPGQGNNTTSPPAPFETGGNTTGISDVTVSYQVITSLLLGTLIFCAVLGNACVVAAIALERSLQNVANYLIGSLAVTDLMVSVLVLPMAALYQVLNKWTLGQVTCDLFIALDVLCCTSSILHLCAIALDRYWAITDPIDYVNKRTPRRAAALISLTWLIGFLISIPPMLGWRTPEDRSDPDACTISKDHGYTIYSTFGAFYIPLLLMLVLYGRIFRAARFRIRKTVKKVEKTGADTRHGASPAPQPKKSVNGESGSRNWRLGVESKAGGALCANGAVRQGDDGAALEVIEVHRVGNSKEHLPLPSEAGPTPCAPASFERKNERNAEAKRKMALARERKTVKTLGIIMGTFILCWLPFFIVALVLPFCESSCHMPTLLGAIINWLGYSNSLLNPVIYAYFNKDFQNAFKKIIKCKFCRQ
Sequence of human 5-HT2A receptor (P28223 whole entry): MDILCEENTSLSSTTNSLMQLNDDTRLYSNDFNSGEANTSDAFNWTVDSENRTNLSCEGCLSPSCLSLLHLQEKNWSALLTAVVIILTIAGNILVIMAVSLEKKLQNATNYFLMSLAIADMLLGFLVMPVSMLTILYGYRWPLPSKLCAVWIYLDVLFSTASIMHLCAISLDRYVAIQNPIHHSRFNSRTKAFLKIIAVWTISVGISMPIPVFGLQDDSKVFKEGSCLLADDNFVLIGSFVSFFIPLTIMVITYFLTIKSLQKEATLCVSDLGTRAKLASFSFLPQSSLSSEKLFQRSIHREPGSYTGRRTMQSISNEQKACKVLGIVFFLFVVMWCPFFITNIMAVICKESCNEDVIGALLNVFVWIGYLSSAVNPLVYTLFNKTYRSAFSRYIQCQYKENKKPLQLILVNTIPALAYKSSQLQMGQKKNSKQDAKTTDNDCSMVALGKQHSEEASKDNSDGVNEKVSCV

Row | SMILES | pIC50 [1] | Emax at 10 µM [2] [%] | pIC50 [3] | Metabolic stability in human hepatic microsome [4] [mL/min/mg protein] | pEC50 [2] | pKi [5] | pKi [6]
1 | Cc1noc2ccn(CCN3CCN(c4nsc5ccccc45)CC3)c(=O)c12 [Example 53] | 5.24 | 72 | 8.10 | 0.436 | – | – | –
2 | Cc1cc2c(cn1)C(=O)N(CCN1CCN(c3nsc4ccccc34)CC1)CC2 [Example 108, 2-{2-[4-(1,2-Benzoisothiazol-3-yl)piperazin-1-yl]ethyl}-6-methyl-3,4-dihydro-2,7-naphthyridin-1(2H)-one] | 5.55 | 71 | 8.12 | 0.119 | – | – | –
3 | COc1ncc2c(n1)CCN(CCN1CCC(c3noc4ccccc34)CC1)C2=O [Example 176] | 6.00 | 40 | – | <0.05 | 7.51 | 8.29 | 6.61
4 | Cc1n[nH]c2c1C(=O)N(CCN1CCC(c3noc4ccccc34)CC1)CC2 [Example 99, 5-{2-[4-(1,2-Benzoisoxazol-3-yl)piperidin-1-yl]ethyl}-3-methyl-1,5,6,7-tetrahydro-4H-pyrazolo[4,3-c]pyridin-4-one] | 5.54 | 40 | – | <0.01 | 6.73 | 7.67 | 6.55
5 | CCn1cc2c(n1)CCN(CCN1CCN(c3nsc4ccccc34)CC1)C2=O [Example 163] | 5.85 | 67 | – | 0.118 | 7.96 | 8.62 | 6.12
6 | O=C1c2ncccc2CCN1CCN1CCN(c2nsc3cc(F)ccc23)CC1 [Example 27] | 5.89 | 58 | – | 0.048 | 7.26 | 8.22 | 6.64
7 | O=C1c2cnccc2C2(CC2)CN1CCN1CCN(c2noc3ccccc23)CC1 [Example 136] | 5.22 | 30 | – | 0.598 | 6.25 | 7.12 | 5.64
8 | O=c1c2ncccc2ccn1CCN1CCC(c2noc3cc(F)ccc23)CC1 [Example 12] | 6.52 | 32 | – | 0.02 | 7.02 | 8.15 | 6.51
9 | Cn1cc2c(n1)C(=O)N(CCN1CCC(c3noc4ccccc34)CC1)CC2 [Example 156] | 5.68 | 46 | – | <0.05 | 7.51 | 8.29 | 6.13
10 | O=C1c2sccc2CCN1CCN1CCC(c2noc3ccccc23)CC1 [Example 126] | > 6.52 | 60 | – | 0.135 | 7.17 | 7.80 | 7.03
11 | CCn1ncc2c1CCN(CCN1CCN(c3nsc4ccccc34)CC1)C2=O [Example 64] | 5.11 | 69 | – | 0.064 | 6.72 | 7.76 | 6.37
12 | O=c1c2ncccc2ccn1CCN1CCN(c2noc3ccccc23)CC1 [Example 117] | 5.36 | 40 | – | <0.05 | 6.24 | 7.44 | 5.76
13 | Cc1cc2c(cn1)C(=O)N(CCN1CCN(c3noc4ccccc34)CC1)CC21CC1 [Example 21] | 5.10 | 59 | – | 0.323 | 7.74 | 8.06 | 5.67
14 | Cc1cc2c(cn1)C(=O)N(CCN1CCC(c3noc4ccccc34)CC1)CC2 [Example 135] | 6.15 | 54 | – | <0.05 | 8.21 | 8.85 | 7.21
15 | Cn1ccc2c1CCN(CCN1CCN(c3noc4ccccc34)CC1)C2=O [Example 170] | 5.13 | 42 | – | <0.05 | 6.08 | 7.45 | 5.77
16 | CC(C)c1nc2c(o1)C(=O)N(CCN1CCN(c3nsc4ccccc34)CC1)CC2 [Example 66] | 5.68 | 67 | – | 0.357 | 7.11 | 8.06 | 6.08
17 | [2H]C([2H])([2H])Oc1cc2c(cn1)C(=O)N(CCN1CCN(c3nsc4ccccc34)CC1)CC2([2H])[2H] [Example 107, 2-{2-[4-(1,2-Benzoisothiazol-3-yl)piperazin-1-yl]ethyl}-6-[(^2H3)methyloxy] (4,4-^2H2)-3,4-dihydro-2,7-naphthyridin-1(2H)-one] | 5.77 | 64 | – | 0.210 | 8.12 | 10.10 | 6.61
18 | COc1ncc2c(n1)CCN(CCN1CCN(c3nsc4ccccc34)CC1)C2=O [Example 177] | 5.43 | 36 | – | 0.095 | – | 8.25 | 6.63
19 | CC1CN(CCN2CCN(c3nsc4ccccc34)CC2)C(=O)c2cnn(C)c21 (stereo not drawn) [Example 77] | 5.34 | 78 | – | 0.119 | 8.89 | 9.62 | 6.22
20 | Cn1cnc2c1C(=O)N(CCN1CCC(c3noc4ccccc34)CC1)CC2 [Example 133] | 5.33 | 26 | – | <0.05 | 6.54 | 6.49 | 6.04
21 | Cc1ccc2c(n1)C(=O)N(CCN1CCN(c3noc4ccccc34)CC1)CC2 [Example 183] | < 5.52 | 44 | – | <0.05 | 6.51 | 7.66 | < 5.00
22 | O=C1c2nc(F)ccc2CCN1CCN1CCC(c2noc3ccccc23)CC1 [Example 188, 7-{2-[4-(1,2-Benzoisoxazol-3-yl)piperidin-1-yl]ethyl}-2-fluoro-6,7-dihydro-1,7-naphthyridin-8(5H)-one] | 5.72 | 53 | – | <0.05 | 7.08 | 8.11 | 6.15
23 | O=C1c2ncccc2CCN1CCN1CCC(c2noc3ccc(F)cc23)CC1 [Example 5] | 5.62 | 60 | – | <0.01 | 7.04 | 8.24 | 5.11
24 | Cn1ncc2c1CCCN(CCN1CCN(c3nsc4ccccc34)CC1)C2=O [Example 44] | 5.11 | 76 | – | 0.04 | 8.74 | 9.66 | 6.92
25 | Cc1nccc2c1C(=O)N(CCN1CCC(c3noc4ccccc34)CC1)CC2 [Example 87] | 6.30 | 76 | – | 0.458 | – | 9.92 | 7.03
26 | Cn1cnc2c1C(=O)N(CCN1CCN(c3nsc4ccccc34)CC1)CCC2 [Example 55] | < 5.00 | 50 | – | 0.161 | 8.37 | 7.87 | 6.16
27 | CC1CN(CCN2CCC(c3noc4ccccc34)CC2)C(=O)c2ncccc21 (stereo not drawn) [Example 15] | 5.80 | 57 | – | 0.055 | 8.14 | 9.29 | 5.81
